Active and inactive are the calls of the source. The calls are words filed in the database; no cut-off is given here.
What was measured:
HT-22 [1] = test: Neuroprotective activity against glutamate-induced neuronal cell death in mouse HT22 cells assessed as increase in cell viability at 1 to 25 uM after 24 hrs by MTT assay relative to control; assay type: functional, cell-based
HT-22 [2] = test: (§1) Cytotoxicity against mouse HT22 cells assessed as cell viability at 1 to 25 uM after 24 hrs by MTT assay relative to control; assay type: cell-based; details: ht-22, 24 h, 25 µM
HT-22 [3] = test: Neuroprotective activity against glutamate-induced neuronal cell death in mouse HT22 cells assessed as increase in cell viability at 10 uM after 24 hrs by MTT assay relative to control; assay type: functional
[4] = Cytotoxicity against mouse HT22 cells assessed as cell viability at 25 uM after 24 hrs by MTT assay relative to control; assay type: cell-based, HT-22; details: read-out: Activity
HT-22 [5] = test: Neuroprotective activity against t-BuOOH-induced neuronal cell death in mouse HT22 cells assessed as increase in cell viability at 1 to 100 uM after 20 hrs by MTT assay relative to control; assay type: functional, cell-based
HT-22 [6] = test: Neuroprotective activity against glutamate-induced neuronal cell death in mouse HT22 cells assessed as increase in cell viability at 25 uM after 24 hrs by MTT assay relative to control; assay type: functional, cell-based
[7] = Cytotoxicity against mouse HT22 cells assessed as cell viability at 10 uM after 24 hrs by MTT assay relative to control; assay type: cell-based, HT-22; details: read-out: Activity
HT-22 [8] = test: Neuroprotective activity against glutamate-induced neuronal cell death in mouse HT22 cells assessed as increase in cell viability after 24 hrs by MTT assay relative to control; assay type: functional, cell-based
[9] = as §1; assay type: cell-based, HT-22; details: HT22 cells, read-out: Activity
[10] = Cytotoxicity against mouse HT22 cells assessed as cell viability at 1 uM after 24 hrs by MTT assay relative to control; assay type: cell-based, HT-22; details: read-out: Activity
HT-22 [11] = test: Neuroprotective activity against glutamate-induced neuronal cell death in mouse HT22 cells assessed as increase in cell viability at 10 to 25 uM after 24 hrs by MTT assay relative to control; assay type: functional, cell-based
[12] = Cytotoxicity against mouse HT22 cells assessed as reduction in cell viability at 10 uM after 24 hrs by MTT assay relative to control; assay type: cell-based, HT-22; details: read-out: INH
[13] = Cytotoxicity against mouse HT22 cells assessed as reduction in cell viability at 25 uM after 24 hrs by MTT assay relative to control; assay type: cell-based, HT-22; details: read-out: INH
HT-22 [14] = test: Neuroprotective activity against glutamate-induced neuronal cell death in mouse HT22 cells assessed as increase in cell viability at 5 uM after 24 hrs by MTT assay relative to control; assay type: functional

SMILES	Activity (HT-22 [1])	viability at 24 h, 10 µM [7] [%]	Activity (HT-22 [8])	other results
COc1cc(/C=C/C(O)=C/C(=O)/C=C/c2ccc(O)cc2)ccc1O [DEMETHOXYCURCUMIN]	inactive			Activity (HT-22 [2]): Toxic
O=C(/C=C/c1ccc(O)c(O)c1)CCCCc1ccc(O)c(O)c1				Activity (HT-22 [3]): inactive; viability at 24 h, 25 µM [4]: 78%; Activity (HT-22 [5]): Active; Activity (HT-22 [6]): Active
COc1cc(/C=C/C(C)=O)ccc1O	inactive			
O=C(/C=C/c1ccc(O)cc1)CCCCc1ccc(O)cc1	inactive	43		viability at 24 h, 25 µM [4]: 25%
COc1cc(CCCCC(O)CCc2ccc(O)c(OC)c2)ccc1O (centres undefined)		73	Dose-dependent effect	Activity (HT-22 [6]): Active
COc1cc(CCCCC(=O)/C=C/c2ccc(O)cc2)ccc1O	inactive	67		
Oc1ccc(CCCCC(O)CCc2ccc(O)cc2)cc1 (racemic)	inactive	43		viability at 24 h, 25 µM [4]: 25%
COc1cc(CCC(=O)CCCCc2ccc(O)cc2)ccc1O			Dose-dependent effect	viability at 24 h, up to 25 µM [9]: 37%; Activity (HT-22 [6]): Active
COc1cc(/C=C/C(=O)CCCCc2ccc(O)cc2)ccc1O		68	Dose-dependent effect	
O=C(/C=C/c1ccc(O)c(O)c1)CC(=O)/C=C/c1ccc(O)c(O)c1 [DIDEMETHYLCURCUMIN]				Activity (HT-22 [2]): Toxic
COc1ccc(CCCCC(=O)CCc2ccc(OC)c(OC)c2)cc1OC				viability at 24 h, 25 µM [4]: 43%; viability at 24 h, 1 µM [10]: 75%; Activity (HT-22 [11]): inactive
COc1cc(CCCCC(=O)CCc2ccc(O)c(OC)c2)ccc1O		70	Dose-dependent effect	Activity (HT-22 [6]): Active
CC(=O)/C=C/c1ccc(O)cc1	inactive			viability at 24 h, up to 25 µM [9]: 50%
COc1cc(/C=C/C(=O)CC(=O)/C=C/c2ccc(O)c(OC)c2)ccc1O [CURCUMIN]				cytotoxicity at 24 h, 10 µM [12]: 18%; cytotoxicity at 24 h, 25 µM [13]: 36%
COc1cc(CCC(O)CCCCc2ccc(O)cc2)ccc1O (centres undefined)		75	Dose-dependent effect	Activity (HT-22 [6]): Active
O=C(/C=C/c1ccc(O)cc1)CC(=O)/C=C/c1ccc(O)cc1 [BISDEMETHOXYCURCUMIN]				Activity (HT-22 [2]): Toxic
COc1cc(/C=C/C(=O)CCCCc2ccc(O)c(OC)c2)ccc1O		66	Dose-dependent effect	Activity (HT-22 [14]): 47%; Activity (HT-22 [3]): 62%; Activity (HT-22 [5]): inactive
O=C(CCCCc1ccc(O)cc1)CCc1ccc(O)cc1		43		viability at 24 h, 25 µM [4]: 25%
COc1cc(CCCCC(O)CCc2ccc(O)cc2)ccc1O (centres undefined)	inactive	74		
COc1cc(CCCCC(=O)CCc2ccc(O)cc2)ccc1O	inactive	71		

— ChEMBL document CHEMBL3352561, “Synthesis of natural and non-natural curcuminoids and their neuroprotective activity against glutamate-induced oxidative stress in HT-22 cells” (J Nat Prod, 2014)
